Data published in ChEMBL document CHEMBL5247641, “Discovery of Potent DYRK2 Inhibitors with High Selectivity, Great Solubility, and Excellent Safety Properties for the Treatment of Prostate Cancer” (J Med Chem, 2023).
The source made the active and inactive calls. The rule behind the calls is not given here.

Legend:
[1] = system: CWR22R; assay: Induction of cell cycle arrest in human 22Rv1 cells assessed as accumulation of cells at S phase at 2 uM incubated for 24 hrs by propidium iodide based flow cytometric analysis (Rvb=20.51 %); format: functional
[2] = system: CWR22R; assay: Induction of cell cycle arrest in human 22Rv1 cells assessed as accumulation of cells at G2 phase at 1 uM incubated for 24 hrs by propidium iodide based flow cytometric analysis (Rvb=24.21 %); format: functional
[3] = system: DU-145; assay: Antitumor activity against human DU-145 xenografted in BALB/c nude mouse as downregulation of c-MYC level in tumor at 100 to 200 mg/kg,po administrated once daily for 21 days by Western blot analysis; format: functional, organism-based; details: dose 100-200 mg/kg, time 21.0 day
[4] = system: CWR22R; assay: Induction of cell cycle arrest in human 22Rv1 cells assessed as accumulation of cells at G2 phase at 2 uM incubated for 24 hrs by propidium iodide based flow cytometric analysis (Rvb=24.21 %); format: functional
[5] = molecular target: T1, Dual specificity tyrosine-phosphorylation-regulated kinase 2 (Homo sapiens) (UniProt Q92630); assay: Inhibition of DYRK2 in human 22Rv1 cells assessed as reduction in 4E-BP1 phosphorylation at 2 to 8 uM incubated for 24 hrs by Western blot analysis; format: cell-based; details: dose 2-8 µM
T1 sequence (whole entry): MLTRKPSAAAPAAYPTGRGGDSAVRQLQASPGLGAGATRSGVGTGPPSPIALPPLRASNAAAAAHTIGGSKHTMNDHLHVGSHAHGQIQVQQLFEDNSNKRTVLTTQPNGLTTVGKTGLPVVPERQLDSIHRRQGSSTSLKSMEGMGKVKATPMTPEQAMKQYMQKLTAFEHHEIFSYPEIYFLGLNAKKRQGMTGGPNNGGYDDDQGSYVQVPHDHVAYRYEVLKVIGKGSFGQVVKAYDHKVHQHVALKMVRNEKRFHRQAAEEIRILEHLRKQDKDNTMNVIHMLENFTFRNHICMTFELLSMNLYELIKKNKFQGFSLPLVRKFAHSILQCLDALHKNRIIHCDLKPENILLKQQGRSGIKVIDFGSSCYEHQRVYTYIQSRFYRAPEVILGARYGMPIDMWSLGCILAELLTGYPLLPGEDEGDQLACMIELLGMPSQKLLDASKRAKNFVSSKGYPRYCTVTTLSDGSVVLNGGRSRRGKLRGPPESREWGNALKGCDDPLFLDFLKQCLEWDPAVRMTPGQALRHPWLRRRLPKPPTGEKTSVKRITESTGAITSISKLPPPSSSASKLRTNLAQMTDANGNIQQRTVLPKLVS

[6] = system: CWR22R; assay: Antiproliferative activity against human 22Rv1 cells assessed as inhibition of cell proliferation incubated for 3 days by CCK-8 assay; format: functional, cell-based; details: 22Rv1, 72 h
[7] = Acute toxicity in ICR mouse assessed as change in lung weight at 1000 to 10000 mg/kg,po and measured after 14 days; format: organism-based; details: in vivo, 336 h, dose 1000-10000 mg/kg, time 14 day
[8] = system: DU-145; assay: Induction of apoptosis in human DU-145 cells assessed as apoptotis rate at 8 uM incubated for 24 hrs by Annexin V-FITC and PI staining based flow cytometry (Rvb= 4.36%); format: functional
[9] = system: CWR22R; assay: Antiproliferative activity against human 22Rv1 cells assessed as reduction in c-Myc expression level at 2 to 8 uM incubated for 24 hrs by Western blot analysis; format: functional, cell-based; details: dose 2-8 µM
[10] = system: DU-145; assay: Induction of apoptosis in human DU-145 cells assessed as increase in cleaved PARP level at 2 to 8 uM incubated for 24 hrs by Western blot analysis; format: functional, cell-based; details: dose 2-8 µM
[11] = Thermodynamic water solubility of compound by HPLC anlaysis; format: physicochemical; details: read-out: Therm_solubility
[12] = system: DU-145; assay: Induction of cell cycle arrest in human DU-145 cells assessed as accumulation of cells at G1 phase at 4 uM incubated for 24 hrs by propidium iodide based flow cytometric analysis (Rvb= 53.46%); format: functional
[13] = Toxicity in BALB/c nude mouse xenografted with human DU-145 assessed as body weight change at 100 to 200 mg/kg,po qd administrated once daily for 21 days; format: organism-based; details: in vivo, 504 h, dose 100-200 mg/kg, time 21 day
[14] = system: DU-145; assay: Antimigratory activity against human DU-145 cells assessed as inhibition of cell migration at 1 to 8 uM incubated for 24 hrs by transwell migration assay; format: functional, cell-based; details: dose 1-8 µM
[15] = molecular target: T1, Dual specificity tyrosine-phosphorylation-regulated kinase 2 (Homo sapiens); assay: Inhibition of DYRK2 in human DU-145 cells assessed as reduction in 4E-BP1 phosphorylation at 2 to 8 uM incubated for 24 hrs by Western blot analysis; format: cell-based; details: dose 2-8 µM
[16] = system: CWR22R; assay: Induction of cell cycle arrest in human 22Rv1 cells assessed as accumulation of cells at G1 phase at 2 uM incubated for 24 hrs by propidium iodide based flow cytometric analysis (Rvb= 55.28%); format: functional
[17] = system: CWR22R; assay: Antiproliferative activity against human 22Rv1 cells assessed as increase in p27 expression level at 2 to 8 uM incubated for 24 hrs by Western blot analysis; format: functional, cell-based; details: dose 2-8 µM
[18] = system: DU-145; assay: Antimigratory activity against human DU-145 cells assessed as upregulation of E-cadherin expression level at 2 to 8 uM incubated for 24 hrs by Western blot analysis; format: functional, cell-based; details: dose 2-8 µM
[19] = Acute toxicity in ICR mouse assessed as appearance of lesions in heart at 5000 to 10000 mg/kg,po and measured after 14 days by H and E staining based microscopic analysis; format: organism-based; details: in vivo, 336 h, dose 5000-10000 mg/kg, time 14 day
[20] = Acute toxicity in ICR mouse assessed as appearance of lesions in lung at 5000 to 10000 mg/kg,po and measured after 14 days by H and E staining based microscopic analysis; format: organism-based; details: in vivo, 336 h, dose 5000-10000 mg/kg, time 14 day
[21] = system: DU-145; assay: Induction of cell cycle arrest in human DU-145 cells assessed as accumulation of cells at S phase at 1 uM incubated for 24 hrs by propidium iodide based flow cytometric analysis (Rvb= 29.02%); format: functional
[22] = system: DU-145; assay: Induction of cell cycle arrest in human DU-145 cells assessed as accumulation of cells at G1 phase at 2 uM incubated for 24 hrs by propidium iodide based flow cytometric analysis (Rvb= 53.46%); format: functional
[23] = system: DU-145; assay: Induction of cell cycle arrest in human DU-145 cells assessed as accumulation of cells at G1 phase at 1 uM incubated for 24 hrs by propidium iodide based flow cytometric analysis (Rvb= 53.46%); format: functional
[24] = Cytotoxicity against human RWPE-1 cells assessed as inhibition of cell proliferation incubated for 3 days by CCK-8 assay; format: toxicity, cell-based
[25] = system: DU-145; assay: Induction of cell cycle arrest in human DU-145 cells assessed as accumulation of cells at S phase at 2 uM incubated for 24 hrs by propidium iodide based flow cytometric analysis (Rvb= 29.02%); format: functional
[26] = Metabolic stability in human liver microsomes assessed as half life in presence of NADPH incubated up to 60 mins by LC-MS/MS analysis; format: ADME, Microsome
[27] = Acute toxicity in ICR mouse assessed as change in kidney weight at 1000 to 10000 mg/kg,po and measured after 14 days; format: organism-based; details: in vivo, 336 h, dose 1000-10000 mg/kg, time 14 day
[28] = system: DU-145; assay: Antiproliferative activity against human DU-145 cells assessed as inhibition of clone formation at 1 to 8 uM incubated for 2 weeks by crystal violet staining based assay; format: functional, cell-based; details: dose 1-8 µM

## Cl.O=C(c1ccc(Nc2ncc(F)c(-c3ccc4scnc4c3)n2)nc1)N1CCNCC1
[1]
  Activity: 14.24%
[2]
  Activity: 23.01%
[3]
  Activity: Active
[4]
  Activity: 22.88%
[5]
  inhibition: Active
[6]
  IC50: 2.56 µM
[7]
  Activity: Non-Toxic
[8]
  Activity: 11.98%
[9]
  Activity: Active
[10]
  Activity: Active
[11]
  solubility thermodynamic: 29.5 mg/mL
[12]
  Activity: 68.51%
[13]
  Activity: Non-Toxic
[14]
  Activity: Active
[15]
  inhibition: Active
[16]
  Activity: 62.88%
[17]
  Activity: Active
[18]
  Activity: Active
[19]
  Activity: Non-Toxic
[20]
  Activity: Non-Toxic
[21]
  Activity: 28.05%
[22]
  Activity: 61.07%
[23]
  Activity: 54.77%
[24]
  IC50 at 3 days: 25 µM
[25]
  Activity: 26.15%
[26]
  half-life: 1.3 h
[27]
  Activity: Non-Toxic
[28]
  Activity: Active
